# Data published in article PMC11700832, “Small-molecule MMRi36 induces apoptosis in p53-mutant lymphomas by targeting MDM2/MDM4/XIAP for degradation” (Frontiers in Oncology, 2024).
# Target: T1, MDM2 (MDM2-MDM4 RING domain heterodimer) (Homo sapiens, UniProt O15151+Q00987)
# T1 construct: RING domain heterodimers of MDM2-MDM4, co-expressed in E. coli; with MDM4 (RING domain)
# Test: microscale thermophoresis; thermofluor (Tm […] to […] °C); in vitro ubiquitination activation
# Type: binding
# T1 sequence (Q00987 428-491 limits assumed): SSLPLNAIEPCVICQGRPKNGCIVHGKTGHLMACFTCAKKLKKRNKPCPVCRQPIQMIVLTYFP
# T1 sequence (O15151 428-490 limits assumed): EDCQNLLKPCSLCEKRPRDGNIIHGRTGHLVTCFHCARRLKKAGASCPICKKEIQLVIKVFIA
smiles,measurement,value
O=C1Nc2ccc(Br)cc2C12NN=C(c1ccccc1)S2 (stereo not shown) [MMRi36],Kd,~308 nM
